Key:
pERK in colon = assay: pERK IHC in colon tissues of KPF/FC mice; format: in vivo, mouse; conditions: KPF/FC cohort; 10 and 25 mg/kg dose levels
Method: Tumor formation in KPF/FC (KrasLSL.G12D/+; p53flox/flox; Pdx1-Cre) mice was monitored by bi-weekly palpations until the detection of a mass, which was then confirmed by ultrasound. Tumor-bearing mice were randomized and assigned into groups (n=3/dose/timepoint). Single dose of RMC-7977 was administered orally at 10 mg/kg, 25 mg/kg and 50 mg/kg. The same vehicle formulation was used for the control group. Whole blood and tissue (tumors and colons) were harvested at indicated time points preserved as previously described (See Xenograft studies section).
All tissues were fixed for up to 24 hours using 10% neutral buffered formalin and then moved to 70% ethanol for long term storage. All stainings were performed on 4-μm tissue sections. Sections were deparaffinized using a Leica XL ST5010 autostainer, after which slides were subjected to heat-activated epitope retrieval. To block endogenous peroxidases, 20 min incubation in 3% H2O2 (Fisher Scientific) was performed. Slides were further blocked in serum for 1 hour, and primary antibodies were added for overnight incubation at 4° C. The next day, slides were washed and incubated with ImmPRESS HRP Horse Anti-Rabbit IgG Polymer Detection Kit (Vector Laboratories, MP-7401) for 30 min. […] Quantitative analyses of IHC images were performed using ImageJ.

[1] = system: KPCY-derived PDAC cell line (6499c4) allografts; assay: KPCY 6499c4 syngeneic allograft studies; format: in vivo, mouse
Method: All murine allograft studies and procedures related to animal handling, care and treatment were conducted in compliance with all applicable regulations and guidelines of the Institutional Animal Care and Use Committee (IACUC). Female C57BL/6J (strain 000664) mice aged 6-8 weeks from the Jackson Laboratory (Bar Harbor, ME USA) were used for these studies.
In order to generate subcutaneous (SC) allograft tumors, each mouse was inoculated in the right flank with 3×10^5 of KPCY 6499c4 tumor cells in 0.1 ml of Matrigel:PBS (1:1). Treatments were started when the average tumor size reached 140 mm^3. Tumor size was measured at two dimensions using a digital caliper, and the tumor volume in mm^3 was calculated using the formula: Volume=((width)2×length)/2. Mice on studies were weighed and tumors were measured 2 times a week.
To generate orthotopic allograft tumors, 5×10^4 KPCY 6499c4 tumor cells in 20 μL PBS/Matrigel mixtures (1:1) were implanted directly into the mouse pancreas through a laparoscopic incision. Treatments were started when the average tumor size reached […]. Body weights were measured and tumor growth was monitored by ultrasound twice weekly.
Tumor-bearing animals were randomized, assigned into groups (n=9-10/group), and treated daily via oral gavage with Vehicle or RMC-7977 (10 mg/kg, q.d.). For SC KPCY study, survival endpoint was defined as: tumor volume reaching 2000 mm^3 or mice showing any clinical signs, including severe ulceration. For orthotopic KPCY study, survival endpoint was defined as (1) mice showing any clinical signs including hunching or fluid in the abdomen, or (2) tumor dimensions exceeding the imaging frame of the ultrasound. Body weights were measured twice a week during the study. Tissue was harvested either at 4 hours or 24 hours after last dose and preserved as previously described (See Xenograft studies section).
To stain tissues collected from the KPCY allograft model, a Biocare IntelliPATH automation system was used, and primary antibodies were detected with the MACH4-HRP-polymer Detection System (Biocare, MRH534). Stained slides were scanned and digitized with a TissueScope LE (Huron Digital Pathology) whole slide scanner at 20× magnification. Image analysis was performed using HALO software from Indica Labs.

[2] = Tumor versus blood concentrations, all model systems tested; format: in vivo; conditions: BALB/c, C57Bl/6, KPF/FC, mouse, tumor vs whole blood, oral, read-out: Kp (concentration in tumor tissues vs blood)
Method: Whole blood, tumor, colon and skin tissue concentrations of RMC-7977 were determined using liquid chromatography-tandem mass spectrometry (LC-MS/MS) methods. […] After thorough mixing and centrifugation, the supernatant was directly analyzed on a Sciex 6500+ triple quadrupole mass spectrometer equipped with an ACQUITY or Shimadzu UPLC system. An ACQUITY UPLC BEH C18 or C4 […] (2.1×50 mm) column was used with gradient elution for compound separation. RMC-7977 and IS (verapamil or terfenadine) were detected by positive electrospray ionization using multiple reaction monitoring (RMC-7977: m/z 865.4/706.4 or m/z 865.3/833.5; verapamil: m/z 455.2/164.9; terfenadine: m/z 472.3/436.4). […] BA analysis on blood and tissue samples from xenograft models was run at Wuxi AppTec. BA analysis on blood and tissue samples from allograft models and GEMM was run at Revolution Medicines.

[3] = orthotopic CDA model, four hours after treatment

For `CCn1c(-c2cc(N3CCN(C4CC4)CC3)cnc2[C@H](C)OC)c2c3cc(ccc31)-c1csc(n1)C[C@H](NC(=O)[C@H]1[C@@H]3COC[C@@H]31)C(=O)N1CCC[C@H](N1)C(=O)OCC(C)(C)C2` [RMC-7977], the “RAS/MAPK activity (pERK) in colon tissues” value (pERK in colon) was “rapidly restored to baseline”, the tumor regressions ([1]; 10 mg/kg q.d.) was “without inducing significant regressions” and the apoptosis in tumors [1, 3] was “increased apoptosis”. For the same molecule, the “pERK levels in tumors” value [1, 3] was “reduced pERK levels”, the tumor growth ([1]; subcutaneous or orthotopic, immunocompetent C57Bl/6 mice, 10 mg/kg q.d.) was “diminished tumor growth” and the overall survival ([1]; subcutaneous or orthotopic, 10 mg/kg q.d.) was “extended overall survival”. The Kp [2] was greater than 1.

— patent US12662707B2, “MYC amplification drives resistance to pan-RAS inhibitors in pancreatic cancer” (The Trustees of Columbia University in the City of New York, priority 2024, dated 2026)
